# Measured values reported in patent US12569495B2, “Inhibitors of porcine reproductive and respiratory syndrome virus” (UNIVERSITY OF CONNECTICUT, priority 2020, dated 2026).
# “Also recorded” adds a separate entry of the source.
# Experiments:
# PRRSV strain VR-2332 [1] = assay: PRRSV titration assay of culture media of infected PAMs; type: cell-based; details: for log reduction of viral titer: pre- and post-inoculation treatment
# Method: (§1) For PRRSV infection of PAM cells, PAMs were seeded one day prior to infection. […] Cells were inoculated with VR-2332, SDSU73, NADC30 or Lelystad PRRSV at MOI=0.1 for 1 h. The 24 h cell medium supernatant was stored at −80° C. until use.
# (§2) For PRRSV titration assay, MARC145 cells were seeded in 48-well plates and grew to ˜80% density before inoculation. Viral supernatants were prepared by 10-fold serial dilution, and 100 μl of the dilutions was added per well in six replicates. Inocula were removed from cells after 2 h and replaced with 0.5 mL of DMEM supplemented with 2% FBS, 2 mM glutamine, 0.1 mM MEM non-essential amino acids, 50 U/mL penicillin, and 50 μg/mL streptomycin (Invitrogen). Cells were cultured at 37° C. for 6 days and any cytopathic effects were observed and recorded. The PRRSV titer was calculated using the Reed and Muench method and expressed as median tissue culture infectious dose (TCID50/mL). Reed and Muench, Am. J. Epidemiol. 27(3): 493-497 (1938).
# PRRSV strain VR-2332 [2] = assay: qRT-PCR for PRRSV RNA in infected PAMs; type: cell-based
# Method: (§3) Total RNA was extracted from PAMs infected with PRRSV using RNeasy Mini Kit (Qiagen, Germantown, MD) according to the manufacturer's instruction. RNA concentrations were measured using a Nanodrop spectrophotometer (Thermo Fisher Scientific). GAPDH was used as a housekeeping gene for gene expression normalization. Data were processed with the software associated with ABI 7500.
# as §1
# [3] = test system: PRRSV strains VR-2332, SDSU73, NADC30 (Type II), or Lelystad (Type I); assay: qRT-PCR for PRRSV RNA in PAMs infected by different strains; type: cell-based; details: 15 μM; 4 h pre-treatment, 24 h post
# Method: as §3
# (§4) For PRRSV infection of PAM cells, PAMs were seeded one day prior to infection. Control cells were treated with DMSO and test cells were treated with the selected screening compounds (5-20 μM) for 4 h before inoculation, during the 1 h PRRSV inoculation, and for 24 h after inoculation. Cells were inoculated with VR-2332, SDSU73, NADC30 or Lelystad PRRSV at MOI=0.1 for 1 h. The 24 h cell medium supernatant was stored at −80° C. until use.
# The inhibitory effect of B7 was further tested on multiple strains of PRRSV. […] This inhibitory effect is further confirmed by viral titration results for the culture media of infected PAMs, with 2.8-3.1 log reduction of viral titers across the 3 Type II PRRSV strains and 2.2 log reduction of viral titer for the type I strain (Lelystad) by 15 μM B7 treatment (FIG. 5D). Thus, compound B7 indeed inhibits the PRRSV infection of PAMs. […]
# [4] = test system: 3 Type II PRRSV strains (VR-2332, SDSU73, NADC30); assay: PRRSV titration assay, Type II strains; type: cell-based; details: 15 μM; PAMs; 24 h
# Method: as §4, §2
# (§5) The inhibitory effect of B7 was further tested on multiple strains of PRRSV. […]
# type I strain (Lelystad) = assay: PRRSV titration assay, type I strain; type: cell-based; details: 15 μM; PAMs; 24 h
# Method: as §4, §2, §5
# [5] = MTT cytotoxicity assay in PAMs; type: cell-based, pig; details: pig, porcine alveolar macrophages (PAMs), 24 h incubation, read-out: LC50, MTT assay
# Method: (§6) The cytotoxicity of selected screening compounds was determined in porcine alveolar macrophages (PAMs) the principal host cell of productive PRRSV infection. Briefly, various concentrations of the compounds were added to PAMs seeded in 24-well plates and incubated for 24 h. Then 50 μl of the MTT assay labeling reagent (In Vitro Toxicology Assay Kit, MTT based, Sigma-Aldrich) were added to each well and incubated for 4 h before 500 μl of the solubilization solution was added into each well to fully dissolve the formazan crystal by overnight incubation. The absorbance of samples was measured using a spectrophotometry microplate reader at 600 nm. PAMs treated with DMSO served as the controls.
# [6] = test system: porcine alveolar macrophages (PAMs); assay: MTT cytotoxicity assay in PAMs; type: cell-based, pig
# Method: as §6
smiles,measurement,setting,value
"Cc1cc(F)ccc1S(=O)(=O)Nc1nc2ccccc2nc1Nc1cccc(S(=O)(=O)N2CCOCC2)c1 [Compound B7, 4-fluoro-2-methyl-N-[3-(3-morpholin-4-ylsulfonylanilino)quinoxalin-2-yl]benzenesulfonamide]",log reduction of viral titer,"PRRSV strain VR-2332 [1]; 10 μM, 24 h",1.7 log
same,"log reduction of PRRSV titer, post-inoculation treatment alone","PRRSV strain VR-2332 [1]; 15 μM, 24 h",2.8 log
same,log reduction of viral titer,"PRRSV strain VR-2332 [1]; 15 μM, 24 h",2.9 log
same,inhibition of PRRSV infection of PAMs (titration of culture media),"PRRSV strain VR-2332 [1]; 10-20 μM B7, 24 h",inhibited PRRSV infection of PAMs effectively
same,"inhibition of PRRSV infection of PAMs (qRT-PCR, viral RNA)","PRRSV strain VR-2332 [2]; 0, 5, 10, 15, 20 μM, 4 h pre-treatment, 1 h inoculation MOI=0.1, 24 h after inoculation",dose-dependent inhibition; also recorded: inhibits PRRSV infection of porcine alveolar macrophages (PAMs)
same,"inhibitory effect on PRRSV infection (qRT-PCR), pre-treatment alone","PRRSV strain VR-2332 [2]; 15 μM, 4 h pre-treatment only, no post-treatment, VR-2332",minimal impact
same,"viral RNA detected in infected PAMs (qRT-PCR), all PRRSV strains",[3],significantly decreased the viral RNA; also recorded: significantly inhibited the infection
same,log reduction of viral titers across the 3 Type II PRRSV strains,[4],2.8-3.1 log
same,log reduction of viral titer for the type I strain (Lelystad),type I strain (Lelystad),2.2 log
same,CC50 at 24 h,[5],81.7 µM
same,concentrations well-tolerated by PAMs (MTT assay),[6]; 24 h,below 25 μM
same,IC50,"[6]; Sus scrofa, Macrophage, 24 h incubation, read-out: IC50, cell viability in MTT assay",81.7 µM
